Each block holds one molecule with its values, some of them ahead of it.
Tests used:
[1] = test system: K562; test: Fixed molar combinations with active site TKIs, curve shift and isobologram analyses (CellTiter-Glo viability); assay type: cell-based
[2] = test system: Ku812; test: as above; assay type: cell-based
[3] = test system: BaF3-BCR-ABL-T315I; test: Expanded combination matrix, excess over Bliss; assay type: cell-based; details: 72 hours
[4] = test system: BaF3BCR-ABL-T315I; test: Fixed molar combinations, curve shift and isobologram analyses; assay type: cell-based; details: 72 hours
[5] = test system: K562; test: Expanded combination matrix, BLISS synergy (CellTiter-Glo viability); assay type: cell-based
[6] = test system: Ku812; test: as above; assay type: cell-based
[7] = test system: kinase panel; test: In vitro kinase panel (substrate phosphorylation assays); assay type: biochemical; details: at 1 μM

SMILES: O=C(Nc1ccc(OC(F)(F)Cl)cc1)c1cnc(N2CC[C@@H](O)C2)c(-c2cc[nH]n2)c1 [Asciminib, asciminib]
Summary of Observations (synergy by curve shift and isobologram analyses) ([1]; combination partner Dasatinib): Synergy at IC90
Summary of Observations (synergy by curve shift and isobologram analyses) ([1]; combination partner Imatinib): Synergy at IC75 and IC90
Summary of Observations (synergy by curve shift and isobologram analyses) ([1]; combination partner Ponatinib): Synergy at IC75 and IC90
Summary of Observations (synergy by curve shift and isobologram analyses) ([2]; combination partner Dasatinib): Additivity
Summary of Observations (synergy by curve shift and isobologram analyses) ([2]; combination partner Imatinib): Additivity
Summary of Observations (synergy by curve shift and isobologram analyses) ([2]; combination partner Ponatinib): Additivity
Excess over Bliss score sum ([3]; Compound 2 dasatinib): 3.19
Highest excess over Bliss score ([3]; Compound 2 dasatinib): 0.27
Excess over Bliss score sum ([3]; Compound 2 flumatinib): 0.81
Highest excess over Bliss score ([3]; Compound 2 flumatinib): 0.15
Excess over Bliss score sum ([3]; Compound 2 imatinib): 1.29
Highest excess over Bliss score ([3]; Compound 2 imatinib): 0.15
Excess over Bliss score sum ([3]; Compound 2 nilotinib): 0.36
Highest excess over Bliss score ([3]; Compound 2 nilotinib): 0.05
Excess over Bliss score sum ([3]; Compound 2 ponatinib): 0.83
Highest excess over Bliss score ([3]; Compound 2 ponatinib): 0.14
Conclusion (synergy by curve shift and isobologram analyses) ([4]; Reference dasatinib): synergy
Conclusion (synergy by curve shift and isobologram analyses) ([4]; Reference flumatinib): no synergy
Conclusion (synergy by curve shift and isobologram analyses) ([4]; Reference nilotinib): no synergy

Inhibition of any kinase in in vitro kinase panel [7]: ≤ 50%
SMILES: C[C@H](CO)n1c(C(F)F)nc2cc(C(=O)Nc3ccc(OC(F)(F)Cl)cc3)cc(-c3cncnc3)c21 [Compound A, (R)—N-(4-(chlorodifluoromethoxy)phenyl)-2-(difluoromethyl)-1-(1-hydroxypropan-2-yl)-7-(pyrimidin-5-yl)-1H-benzo[d]imidazole-5-carboxamide]
Interaction in in vitro combination studies ([1]; with multiple TKIs): works synergistically
Interaction in in vitro combination studies ([2]; with multiple TKIs): at least additively
Strongest BLISS score ([5]; combination partner Dasatinib): 0.16
Summary of Observations (BLISS synergy) ([5]; combination partner Dasatinib): BLISS synergy
Strongest BLISS score ([5]; combination partner Imatinib): 0.12
Summary of Observations (BLISS synergy) ([5]; combination partner Imatinib): BLISS synergy
Strongest BLISS score ([5]; combination partner Ponatinib): 0.17
Summary of Observations (BLISS synergy) ([5]; combination partner Ponatinib): BLISS synergy
Strongest BLISS score ([6]; combination partner Dasatinib): 0.08
Summary of Observations (BLISS synergy) ([6]; combination partner Dasatinib): Weak synergy observed
Strongest BLISS score ([6]; combination partner Imatinib): 0.05
Summary of Observations (BLISS synergy) ([6]; combination partner Imatinib): Weak synergy observed
Strongest BLISS score ([6]; combination partner Ponatinib): 0.07
Summary of Observations (BLISS synergy) ([6]; combination partner Ponatinib): Weak synergy observed

— patent US20250090530A1, “COMBINATIONS FOR THE TREATMENT OF CANCER” (Terns Pharmaceuticals, Inc., priority 2023, published 2025)
